The text below walks through data of ChEMBL document CHEMBL1201862, “PubChem BioAssay data set” (2004).

Structures are written as SMILES.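 Step 1: Grow cells in 96-well plates. Step 2: Expose to compound for 48 hours at 5 concentrations. Step 3: Interpolate endpoints linearly; if unreached, use highest concentration. GI50 is the concentration that inhibits growth by half.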 The source made the active and inactive calls. Rule as the data show it: active = GI50 up to about 1.1 µM and inactive = higher. Some results are limits rather than exact numbers.

Some test systems named below: 786-0; UACC-257; EKVX; DU-145; HCT-15; SF-268; PC-3; SN12C; SR; OVCAR-5; SW-620; SK-OV-3; SNB-75; SK-MEL-5; MOLT-4; HCC 2998; UACC-62; RPMI-8226; NCI-H226; NCI-H522.
Holding throughout (experiment): NCI tumour cell line growth inhibition, 48 h

As for `Cc1cc(C)nc(NC(=S)Nc2cccc(Cl)c2)c1`, the GI50 with 786-0 is > 48.5 µM (inactive); in the assay with UACC-257, > 100 µM (inactive); with EKVX, > 100 µM (inactive); in the assay on DU-145, > 100 µM (inactive); in the assay with HCT-15, greater than 100 µM; in the assay with SF-268, > 100 µM (inactive). The GI50 in the assay with PC-3 was > 100 µM (inactive); in the assay with SN12C, > 100 µM (inactive); in the assay on SR it was 16.6 µM (inactive); with OVCAR-5, > 100 µM (inactive); with SW-620, > 100 µM (inactive); in the assay on SK-OV-3 it was > 100 µM (inactive). The GI50 was > 100 µM (inactive) with SNB-75; > 10 µM (inactive) in the assay with SK-MEL-5; > 100 µM (inactive) with MOLT-4; 65.5 µM (inactive) with HCC 2998; > 100 µM (inactive) in the assay on UACC-62; > 100 µM (inactive) with RPMI-8226. Besides, in the assay with NCI-H226, the GI50 is > 100 µM (inactive).

For `COc1ccc([C@H]2[C@H](C)C3=Nc4ccccc4CN32)cc1`, the GI50 in the assay with 786-0 is 54.1 µM (inactive); in the assay on UACC-257 it was > 100 µM (inactive); in the assay on NCI-H522, > 100 µM (inactive); with EKVX, 96.8 µM (inactive); in the assay with DU-145 it was > 100 µM (inactive); with HCT-15, 76.2 µM. In addition, the GI50 was 98.9 µM (inactive) with SF-268; > 100 µM (inactive) in the assay with PC-3; 63 µM (inactive) with SN12C; 36.8 µM (inactive) in the assay on SR; > 100 µM (inactive) with OVCAR-5; 39.9 µM (inactive) in the assay on SW-620. Also, the GI50 was 40.8 µM (inactive) in the assay with SK-MEL-5; 36.8 µM (inactive) in the assay on MOLT-4; 41.9 µM (inactive) with HCC 2998; 57.5 µM (inactive) in the assay on UACC-62; 33.7 µM (inactive) in the assay on RPMI-8226; 85.1 µM (inactive) in the assay on NCI-H226.

As to `CCOC(=O)c1c(SCC#N)n(-c2ccccc2)c(=S)n(-c2ccccc2)c1=O`, the GI50 with 786-0 is 53.5 µM (inactive); in the assay with UACC-257, 61.2 µM (inactive); in the assay with NCI-H522 it was 34.4 µM (inactive); in the assay with EKVX, 36.3 µM (inactive); with DU-145, > 100 µM (inactive); with HCT-15, 25.8 µM. Besides, the GI50 in the assay on SF-268 was 55.8 µM (inactive); with PC-3 it was 18.8 µM (inactive); in the assay on SN12C, 32.4 µM (inactive); in the assay on SR, 44 µM (inactive); in the assay with OVCAR-5, > 100 µM (inactive); in the assay on SW-620 it was 29.9 µM (inactive). Besides, the GI50 with SK-OV-3 is 35.9 µM (inactive); with SNB-75 it was 25.8 µM (inactive); with SK-MEL-5, 27 µM (inactive); with MOLT-4 it was 9.73 µM (inactive); in the assay with UACC-62 it was 23.3 µM (inactive); with RPMI-8226, 35.5 µM (inactive). Further, the GI50 in the assay with NCI-H226 is 38.4 µM (inactive).

For the molecule `CC1CC[C@@]2(OC1)OC1C[C@H]3[C@@H]4C/C(=N\N(C)C)[C@@]5(O)CC(O)CC[C@]5(C)[C@H]4CC[C@]3(C)C1[C@@H]2C` (stereo partly drawn), the GI50 is 40.6 µM (inactive) in the assay with 786-0; 67.5 µM (inactive) with UACC-257; > 100 µM (inactive) in the assay on DU-145; 67.1 µM in the assay on HCT-15; 58.7 µM (inactive) in the assay with SF-268; 33.7 µM (inactive) in the assay on PC-3. The GI50 was 43.1 µM (inactive) in the assay with SN12C; 22.5 µM (inactive) with SR; 43.5 µM (inactive) in the assay with OVCAR-5; 55.8 µM (inactive) in the assay on SW-620; 76.6 µM (inactive) in the assay on SK-OV-3; 42 µM (inactive) in the assay on SK-MEL-5. In addition, the GI50 in the assay on MOLT-4 was 34.1 µM (inactive); in the assay on HCC 2998 it was 68.5 µM (inactive); in the assay with UACC-62, 37.5 µM (inactive); in the assay with RPMI-8226, 41.6 µM (inactive); in the assay on NCI-H226 it was > 100 µM (inactive).

On to `COc1ccc(OC)c([N+](=O)[O-])c1-c1nc2sccn2c1/C=N/N=C(N)N`, for which the GI50 with 786-0 was > 100 µM (inactive); with UACC-257 it was 69.5 µM (inactive); in the assay on NCI-H522, 58.2 µM (inactive); with EKVX, > 100 µM (inactive); in the assay on DU-145, > 100 µM (inactive); in the assay on HCT-15, greater than 100 µM. The GI50 was 44.6 µM (inactive) in the assay on SF-268; 53 µM (inactive) in the assay with PC-3; > 100 µM (inactive) in the assay on SN12C; 30.6 µM (inactive) with SR; > 100 µM (inactive) with OVCAR-5; 93.3 µM (inactive) in the assay on SW-620. Further, the GI50 in the assay on SK-OV-3 is 61.7 µM (inactive); with SK-MEL-5, 28.8 µM (inactive); in the assay on MOLT-4 it was 26.9 µM (inactive); with HCC 2998, 30.4 µM (inactive); in the assay on UACC-62, 91.8 µM (inactive); in the assay with RPMI-8226, 33.5 µM (inactive). Also, the GI50 in the assay on NCI-H226 was > 100 µM (inactive).

`O=C(CCN1CCCCC1)c1csc2ccccc12`: the GI50 in the assay on 786-0 is 50.1 µM (inactive); with UACC-257, > 100 µM (inactive); with NCI-H522 it was > 100 µM (inactive); with EKVX it was > 100 µM (inactive); in the assay with DU-145, > 100 µM (inactive); in the assay with HCT-15 it was greater than 100 µM. The GI50 in the assay with SF-268, with PC-3, in the assay with SN12C, in the assay with SR, with OVCAR-5 and in the assay with SW-620 was > 100 µM (inactive) in each case. The GI50 was > 100 µM (inactive) with SK-OV-3; > 100 µM (inactive) in the assay with SNB-75; > 100 µM (inactive) in the assay with SK-MEL-5; 61.2 µM (inactive) in the assay with MOLT-4; > 100 µM (inactive) with UACC-62; 10.1 µM (inactive) in the assay on RPMI-8226. The GI50 with NCI-H226 was > 100 µM (inactive).

Consider `CCOc1ccc(-n2nnc3c(N)nc(N)nc32)cc1`, for which the GI50 in the assay on 786-0 was > 100 µM (inactive); with UACC-257 it was > 100 µM (inactive); in the assay with NCI-H522 it was > 100 µM (inactive); with EKVX, > 100 µM (inactive); in the assay with DU-145, > 100 µM (inactive); with HCT-15, greater than 100 µM. Further, the GI50 in the assay with PC-3, in the assay with SN12C, with SR, in the assay with OVCAR-5, in the assay on SW-620 and with SK-OV-3 was > 100 µM (inactive) throughout. Also, the GI50 in the assay with SNB-75, in the assay with SK-MEL-5, with MOLT-4, with UACC-62, with RPMI-8226 and in the assay with NCI-H226 was > 100 µM (inactive) each time.

For `Clc1cc(OC2C3CC4CC(C3)CC2C4)nc(Cl)n1` (stereo not drawn), the GI50 with 786-0 was 16.8 µM (inactive); in the assay on UACC-257, 13.9 µM (inactive); with NCI-H522, 12.4 µM (inactive); with EKVX it was 7.29 µM (inactive); in the assay with DU-145, 19 µM (inactive); in the assay on HCT-15, 14 µM. The GI50 is 19.2 µM (inactive) in the assay on SF-268; 19.2 µM (inactive) in the assay on PC-3; 16.1 µM (inactive) with SN12C; 3.52 µM (inactive) in the assay with SR; 21.3 µM (inactive) in the assay with OVCAR-5; 13.9 µM (inactive) in the assay on SW-620. Also, the GI50 in the assay on SK-OV-3 was 67.5 µM (inactive); in the assay on SNB-75, 39 µM (inactive); in the assay on SK-MEL-5, 17.9 µM (inactive); in the assay on MOLT-4, 16.9 µM (inactive); in the assay with HCC 2998 it was 1.96 µM (inactive); with UACC-62, 12.2 µM (inactive). The GI50 with RPMI-8226 is 21 µM (inactive).
